Values quoted from earlier work, collected in patent US9044383B1, “Compounds and methods for drug delivery via a human nail” (priority 2013, dated 2015).

Key:
overweight and obese men = settings: taken orally
obesity in subjects = settings: applied topically on the skin

SMILES: C=C[C@@]1(C)CC(=O)[C@]2(O)[C@@]3(C)[C@@H](O)CCC(C)(C)[C@@H]3[C@H](O)[C@H](OC(C)=O)[C@@]2(C)O1 [forskolin, 7-beta-acetoxy-8,13-epoxy-1-alpha, 6-beta, 9-alpha-trihydroxylabd-14-en-1′-one]
- solubility in organic solvents (organic solvents such as ethanol, chloroform, and dimethyl surfoxide): soluble
- solubility in water (with 2% ethanol) (water with 2% ethanol, first dissolved in ethanol or dimethyl surfoxide at 5 mg/mL, then diluted with water): up to 0.2 mm
- effectiveness as a weight loss aid (overweight and obese men): favorable results
- decreasing obesity (obesity in subjects): favorable results
